Reference: ChEMBL document CHEMBL1201862, “PubChem BioAssay data set” (2004)
The source made the active and inactive calls.

Assays:
Leucine aminopeptidase = biological target: T1, Leucine aminopeptidase (Plasmodium falciparum 3D7, UniProt Q8IL11); assay: P. falciparum M17LAP inhibitors, primary screen, biochemical, fluorogenic H-Leu-NHMec substrate, 1536-well (AID 1619); assay type: functional
T1 sequence (Q8IL11 whole entry): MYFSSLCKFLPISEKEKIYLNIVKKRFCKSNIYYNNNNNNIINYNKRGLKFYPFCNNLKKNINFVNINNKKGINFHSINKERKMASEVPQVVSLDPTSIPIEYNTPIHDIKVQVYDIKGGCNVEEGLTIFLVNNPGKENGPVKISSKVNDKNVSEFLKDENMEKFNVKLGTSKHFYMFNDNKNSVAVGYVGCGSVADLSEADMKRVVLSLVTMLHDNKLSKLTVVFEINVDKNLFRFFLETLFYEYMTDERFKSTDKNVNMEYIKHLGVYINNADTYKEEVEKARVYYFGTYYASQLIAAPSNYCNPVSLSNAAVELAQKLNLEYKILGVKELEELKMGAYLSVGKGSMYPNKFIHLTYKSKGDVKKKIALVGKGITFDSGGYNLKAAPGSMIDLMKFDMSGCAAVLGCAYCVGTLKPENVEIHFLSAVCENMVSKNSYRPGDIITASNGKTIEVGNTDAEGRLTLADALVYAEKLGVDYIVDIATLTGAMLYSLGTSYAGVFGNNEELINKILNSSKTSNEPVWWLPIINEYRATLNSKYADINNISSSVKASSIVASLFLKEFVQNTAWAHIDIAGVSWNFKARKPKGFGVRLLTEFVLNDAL

Aminopeptidase N = biological target: T2, Aminopeptidase N (Plasmodium falciparum FcB1/Columbia, UniProt O96935); assay: malaria alanyl aminopeptidase activity blockers – biochemical, fluorogenic H-Leu-NHMec substrate, 1536-well (AID 1445); set-up: species or system Plasmodium falciparum 3D7, 3D7
T2 sequence (O96935 whole entry): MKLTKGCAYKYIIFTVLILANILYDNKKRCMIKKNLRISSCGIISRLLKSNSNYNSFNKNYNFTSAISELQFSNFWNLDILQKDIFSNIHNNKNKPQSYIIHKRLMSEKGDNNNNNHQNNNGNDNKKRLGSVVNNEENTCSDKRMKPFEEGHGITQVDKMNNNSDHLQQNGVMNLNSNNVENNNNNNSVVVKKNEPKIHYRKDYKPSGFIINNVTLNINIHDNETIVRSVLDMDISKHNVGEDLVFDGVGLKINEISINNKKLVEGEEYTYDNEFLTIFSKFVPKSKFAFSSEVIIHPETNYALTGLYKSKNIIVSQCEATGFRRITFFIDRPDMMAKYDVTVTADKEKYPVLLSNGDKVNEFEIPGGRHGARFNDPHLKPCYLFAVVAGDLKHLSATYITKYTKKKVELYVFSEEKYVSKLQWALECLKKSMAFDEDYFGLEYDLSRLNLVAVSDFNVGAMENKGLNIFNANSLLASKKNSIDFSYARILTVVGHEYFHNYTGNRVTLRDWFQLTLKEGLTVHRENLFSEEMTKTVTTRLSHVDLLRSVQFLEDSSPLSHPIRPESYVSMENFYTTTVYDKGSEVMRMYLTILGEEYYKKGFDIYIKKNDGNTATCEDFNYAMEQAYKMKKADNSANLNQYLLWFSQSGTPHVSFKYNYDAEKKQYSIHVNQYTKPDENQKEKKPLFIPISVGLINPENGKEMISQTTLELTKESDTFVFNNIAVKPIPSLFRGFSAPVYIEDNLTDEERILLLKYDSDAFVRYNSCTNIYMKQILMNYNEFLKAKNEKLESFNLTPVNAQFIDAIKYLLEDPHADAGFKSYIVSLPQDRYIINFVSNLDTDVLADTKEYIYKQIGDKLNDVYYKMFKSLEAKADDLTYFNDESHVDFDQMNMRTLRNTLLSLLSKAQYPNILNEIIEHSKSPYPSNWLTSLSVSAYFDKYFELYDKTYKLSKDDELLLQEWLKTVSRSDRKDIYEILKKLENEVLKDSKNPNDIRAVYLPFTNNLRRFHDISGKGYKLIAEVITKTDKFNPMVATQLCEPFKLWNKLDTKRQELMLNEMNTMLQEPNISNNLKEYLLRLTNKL

[1] = RKO cell viability reduction, dose response, CellTiter-Glo luminescence (AID 1117322); assay type: functional
[2] = biological target: cGMP-dependent protein kinase 1 (Homo sapiens, UniProt Q13976); assay type: functional;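 also: value from a kinome panel screen with PRKG1 as the panel member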
[3] = biological target: RAC-gamma serine/threonine-protein kinase (Homo sapiens, UniProt Q9Y243); assay type: functional
Sequence of RAC-gamma serine/threonine-protein kinase (Q9Y243 whole entry): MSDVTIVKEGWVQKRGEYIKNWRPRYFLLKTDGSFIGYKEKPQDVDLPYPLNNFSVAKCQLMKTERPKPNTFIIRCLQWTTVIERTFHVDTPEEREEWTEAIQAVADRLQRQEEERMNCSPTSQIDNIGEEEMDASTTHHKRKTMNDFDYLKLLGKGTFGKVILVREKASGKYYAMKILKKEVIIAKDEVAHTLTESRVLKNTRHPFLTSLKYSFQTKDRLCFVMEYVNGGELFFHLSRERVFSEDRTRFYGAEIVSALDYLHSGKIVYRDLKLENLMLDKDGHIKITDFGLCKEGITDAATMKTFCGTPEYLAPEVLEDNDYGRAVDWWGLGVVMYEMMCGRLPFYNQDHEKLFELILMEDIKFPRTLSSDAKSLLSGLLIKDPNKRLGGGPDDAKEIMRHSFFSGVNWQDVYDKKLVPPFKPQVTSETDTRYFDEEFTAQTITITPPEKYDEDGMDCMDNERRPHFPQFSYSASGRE

[4] = biological target: Ribosomal protein S6 kinase beta-1 (Homo sapiens, UniProt P23443); assay type: functional;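 also: measured as one member of a kinome-wide profiling panel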
[5] = biological target: Mitogen-activated protein kinase 8 (Homo sapiens, UniProt P45983); assay type: functional;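 also: value comes from one member of a kinome-wide kinase profiling panel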
[6] = biological target: Serine/threonine-protein kinase pim-1 (Homo sapiens, UniProt P11309); assay type: functional
Sequence of Serine/threonine-protein kinase pim-1 (P11309 whole entry): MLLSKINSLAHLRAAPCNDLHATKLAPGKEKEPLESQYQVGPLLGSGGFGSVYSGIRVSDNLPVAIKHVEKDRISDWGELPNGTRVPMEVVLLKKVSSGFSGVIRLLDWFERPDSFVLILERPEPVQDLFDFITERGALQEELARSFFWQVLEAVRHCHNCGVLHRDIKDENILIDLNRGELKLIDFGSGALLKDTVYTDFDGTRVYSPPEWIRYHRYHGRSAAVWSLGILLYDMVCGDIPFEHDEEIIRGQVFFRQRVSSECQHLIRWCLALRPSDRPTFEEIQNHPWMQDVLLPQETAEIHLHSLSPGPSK

Aurora kinase A = Aurora kinase A (Homo sapiens, UniProt O14965); assay type: functional;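 also: value from the Navigating the Kinome kinase panel profiling, panel entry STK6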
Sequence of Aurora kinase A (O14965 whole entry): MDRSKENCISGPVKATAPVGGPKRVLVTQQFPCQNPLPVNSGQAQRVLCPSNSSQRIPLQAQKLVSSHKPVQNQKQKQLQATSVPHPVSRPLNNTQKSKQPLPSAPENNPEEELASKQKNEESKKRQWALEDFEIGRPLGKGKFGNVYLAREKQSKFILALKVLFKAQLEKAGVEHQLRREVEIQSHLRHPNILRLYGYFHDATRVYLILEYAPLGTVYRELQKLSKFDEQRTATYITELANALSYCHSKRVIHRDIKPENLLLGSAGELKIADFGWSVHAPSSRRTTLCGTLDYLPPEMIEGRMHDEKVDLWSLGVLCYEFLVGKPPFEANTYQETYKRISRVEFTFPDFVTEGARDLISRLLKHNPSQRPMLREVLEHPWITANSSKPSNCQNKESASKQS

[7] = biological target: MAP kinase-activated protein kinase 5 (Homo sapiens, UniProt Q8IW41); assay type: functional;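 also: measured as one member of a kinome panel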
[8] = biological target: Mast/stem cell growth factor receptor Kit (Homo sapiens, UniProt P10721); assay type: functional;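 also: KIT entry within a kinase panel assay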
[9] = biological target: Fibroblast growth factor receptor 1 (Homo sapiens, UniProt P11362); assay type: functional
[10] = biological target: Tyrosine-protein kinase JAK3 (Homo sapiens, UniProt P52333); assay type: functional
Sequence of Tyrosine-protein kinase JAK3 (P52333 whole entry): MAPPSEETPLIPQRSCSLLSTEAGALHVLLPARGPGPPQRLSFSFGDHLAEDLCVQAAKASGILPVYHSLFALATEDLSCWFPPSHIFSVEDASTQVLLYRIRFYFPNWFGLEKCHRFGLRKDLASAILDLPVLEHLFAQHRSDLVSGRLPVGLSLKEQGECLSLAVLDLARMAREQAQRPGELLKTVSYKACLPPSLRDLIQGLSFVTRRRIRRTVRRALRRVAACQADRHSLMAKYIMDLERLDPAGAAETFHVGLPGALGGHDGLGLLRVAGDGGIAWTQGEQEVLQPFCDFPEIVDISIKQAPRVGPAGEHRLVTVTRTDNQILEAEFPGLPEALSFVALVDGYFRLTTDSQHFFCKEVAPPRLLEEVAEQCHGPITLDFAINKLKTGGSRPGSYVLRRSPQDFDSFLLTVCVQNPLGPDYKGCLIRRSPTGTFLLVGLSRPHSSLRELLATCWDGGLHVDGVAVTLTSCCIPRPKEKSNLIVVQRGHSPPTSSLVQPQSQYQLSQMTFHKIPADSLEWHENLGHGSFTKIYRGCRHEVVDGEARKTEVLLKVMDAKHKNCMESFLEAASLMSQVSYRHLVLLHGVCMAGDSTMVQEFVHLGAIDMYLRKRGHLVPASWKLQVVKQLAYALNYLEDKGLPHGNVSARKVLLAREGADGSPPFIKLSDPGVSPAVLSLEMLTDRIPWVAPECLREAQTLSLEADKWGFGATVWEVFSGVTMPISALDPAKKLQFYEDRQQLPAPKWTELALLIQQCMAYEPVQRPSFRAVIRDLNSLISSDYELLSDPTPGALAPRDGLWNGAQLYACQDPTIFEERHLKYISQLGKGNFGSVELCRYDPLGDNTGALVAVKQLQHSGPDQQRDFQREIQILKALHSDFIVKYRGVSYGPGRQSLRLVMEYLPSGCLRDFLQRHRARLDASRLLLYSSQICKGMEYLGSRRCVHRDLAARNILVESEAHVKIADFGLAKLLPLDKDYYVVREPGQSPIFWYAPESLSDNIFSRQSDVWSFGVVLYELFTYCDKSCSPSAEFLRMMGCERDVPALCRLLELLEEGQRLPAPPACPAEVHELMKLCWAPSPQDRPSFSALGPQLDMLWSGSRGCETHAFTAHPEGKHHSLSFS

[11] = biological target: Serine/threonine-protein kinase Chk1 (Homo sapiens, UniProt O14757); assay type: functional;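 also: measured as one member of a kinome-wide kinase profiling panel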
[12] = biological target: Interleukin-1 receptor-associated kinase 1 (Homo sapiens, UniProt P51617); assay type: functional;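 also: IRAK1 tested as one member of a kinome panel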
[13] = biological target: Protein-tyrosine kinase 6 (Homo sapiens, UniProt Q13882); assay type: functional
[14] = biological target: Leucine-rich repeat serine/threonine-protein kinase 2 (Homo sapiens, UniProt Q5S007); assay type: functional;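 also: value from a broad kinome-wide panel profiling study in which LRRK2 was one of the kinases tested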
Sequence of Leucine-rich repeat serine/threonine-protein kinase 2 (Q5S007 whole entry): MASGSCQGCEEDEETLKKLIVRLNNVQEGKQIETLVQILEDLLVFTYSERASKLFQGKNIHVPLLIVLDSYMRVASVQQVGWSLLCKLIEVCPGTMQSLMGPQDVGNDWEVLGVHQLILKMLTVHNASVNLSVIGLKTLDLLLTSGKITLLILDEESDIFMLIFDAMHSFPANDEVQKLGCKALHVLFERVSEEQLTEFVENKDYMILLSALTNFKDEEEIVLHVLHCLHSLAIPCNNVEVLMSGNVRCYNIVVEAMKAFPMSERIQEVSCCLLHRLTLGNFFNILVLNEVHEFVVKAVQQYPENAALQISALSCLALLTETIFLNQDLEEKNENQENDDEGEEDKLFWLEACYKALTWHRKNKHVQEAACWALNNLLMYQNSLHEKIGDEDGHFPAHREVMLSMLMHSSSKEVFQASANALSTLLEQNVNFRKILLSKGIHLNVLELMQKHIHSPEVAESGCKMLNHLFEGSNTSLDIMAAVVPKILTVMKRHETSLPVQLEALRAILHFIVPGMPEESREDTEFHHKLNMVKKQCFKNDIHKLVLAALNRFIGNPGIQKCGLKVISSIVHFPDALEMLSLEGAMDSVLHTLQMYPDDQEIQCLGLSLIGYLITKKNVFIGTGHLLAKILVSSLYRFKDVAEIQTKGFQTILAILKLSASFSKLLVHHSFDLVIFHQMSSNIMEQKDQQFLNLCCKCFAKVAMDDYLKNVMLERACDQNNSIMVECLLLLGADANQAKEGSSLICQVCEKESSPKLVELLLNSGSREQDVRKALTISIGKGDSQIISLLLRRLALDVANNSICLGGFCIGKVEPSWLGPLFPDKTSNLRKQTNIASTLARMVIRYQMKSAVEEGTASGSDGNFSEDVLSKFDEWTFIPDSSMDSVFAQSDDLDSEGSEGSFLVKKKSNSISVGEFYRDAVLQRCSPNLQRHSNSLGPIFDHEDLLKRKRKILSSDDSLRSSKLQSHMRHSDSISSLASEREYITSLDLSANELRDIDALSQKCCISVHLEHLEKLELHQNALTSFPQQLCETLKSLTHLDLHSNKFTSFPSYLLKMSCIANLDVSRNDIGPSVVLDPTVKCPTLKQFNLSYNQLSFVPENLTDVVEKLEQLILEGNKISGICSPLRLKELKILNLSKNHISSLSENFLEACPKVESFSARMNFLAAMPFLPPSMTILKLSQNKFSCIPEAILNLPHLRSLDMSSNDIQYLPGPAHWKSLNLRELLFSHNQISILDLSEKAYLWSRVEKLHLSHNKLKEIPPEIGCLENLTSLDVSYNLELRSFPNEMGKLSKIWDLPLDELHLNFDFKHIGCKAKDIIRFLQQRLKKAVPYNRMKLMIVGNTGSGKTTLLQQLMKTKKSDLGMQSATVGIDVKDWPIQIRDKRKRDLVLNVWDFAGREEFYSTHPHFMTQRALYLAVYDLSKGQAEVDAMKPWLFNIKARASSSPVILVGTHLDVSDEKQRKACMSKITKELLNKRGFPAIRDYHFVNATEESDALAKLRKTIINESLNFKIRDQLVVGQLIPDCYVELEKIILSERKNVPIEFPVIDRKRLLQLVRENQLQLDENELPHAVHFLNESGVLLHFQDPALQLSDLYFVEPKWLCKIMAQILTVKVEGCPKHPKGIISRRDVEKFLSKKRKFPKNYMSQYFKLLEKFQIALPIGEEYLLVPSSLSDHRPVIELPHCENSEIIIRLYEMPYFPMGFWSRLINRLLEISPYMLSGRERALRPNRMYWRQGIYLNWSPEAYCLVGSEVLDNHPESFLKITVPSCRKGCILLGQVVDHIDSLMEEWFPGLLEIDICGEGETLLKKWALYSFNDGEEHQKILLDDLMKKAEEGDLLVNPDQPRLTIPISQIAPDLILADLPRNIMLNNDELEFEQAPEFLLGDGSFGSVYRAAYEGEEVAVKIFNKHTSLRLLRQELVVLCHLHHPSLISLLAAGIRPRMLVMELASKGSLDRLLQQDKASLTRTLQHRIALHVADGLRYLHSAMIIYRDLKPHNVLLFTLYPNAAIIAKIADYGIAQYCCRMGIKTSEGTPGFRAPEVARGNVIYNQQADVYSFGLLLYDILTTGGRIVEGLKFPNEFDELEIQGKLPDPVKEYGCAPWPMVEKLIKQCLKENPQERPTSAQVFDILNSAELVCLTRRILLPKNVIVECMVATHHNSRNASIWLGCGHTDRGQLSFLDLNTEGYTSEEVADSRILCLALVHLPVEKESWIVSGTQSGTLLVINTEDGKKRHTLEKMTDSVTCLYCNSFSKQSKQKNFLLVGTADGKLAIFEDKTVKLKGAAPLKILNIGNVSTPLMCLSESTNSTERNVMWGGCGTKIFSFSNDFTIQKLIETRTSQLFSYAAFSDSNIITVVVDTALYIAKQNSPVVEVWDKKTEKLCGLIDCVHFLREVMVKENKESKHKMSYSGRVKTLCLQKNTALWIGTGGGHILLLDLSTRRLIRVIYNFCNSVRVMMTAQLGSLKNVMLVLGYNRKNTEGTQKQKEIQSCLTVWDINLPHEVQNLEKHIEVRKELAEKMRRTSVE

[15] = biological target: Mitogen-activated protein kinase 12 (Homo sapiens, UniProt P53778); assay type: functional;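 also: measured as one member of a kinome-wide kinase profiling panel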
[16] = luciferase reporter signal suppression in cells – H4 neuroglioma cells, luminescence, dose response (AID 1990); assay type: functional, cell-based
[17] = alpha-synuclein stem-loop luciferase translation blockers – H4 neuroglioma cells, luminescence, confirmation (AID 1988); assay type: functional, cell-based
[18] = biological target: Nucleotide-binding oligomerization domain-containing protein 2 (Homo sapiens, UniProt Q9HC29); assay: inhibition of NOD2-driven NF-kB reporter – cell-based, luminescence, uHTS, HEK293 (AID 1566); assay type: functional
INS1 = assay: INS-1E survival protection against cytokine death – cell-based, luminescence, retest, dose response (AID 449756); assay type: functional; conditions: Rattus norvegicus;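 also: cell death triggered by IL-1 beta plus TNF-alpha plus IFN-gamma mixture; protective hits raise ATP signal compared with cytokine alone wells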
[19] = non-specific 3'UTR reporter inhibition in Clone20-Shn3RL – cell-based, Renilla luciferase, cherry-picked, counter-screen for Shn3 inhibitor project, dose response (AID 624133); assay type: functional

CCc1oc2ccccc2c1C(=O)c1cc(Br)c(O)c(Br)c1 [BENZBROMARONE]
IC50 (Leucine aminopeptidase): 81.9 µM (active) | IC50 (Aminopeptidase N): 62.8 µM (active) | IC50 [1]: 0.131 µM (active)

N#Cc1ccc2[nH]c(O)c(-c3ccc(CN4CCOCC4)cn3)c2c1 [AZD-1080]
Ki [2]: > 2 µM (inactive) | Ki [3]: > 10 µM (inactive) | Ki [4]: > 6.31 µM (inactive) | Ki [5]: > 5.01 µM (inactive) | Ki [6]: > 5.01 µM (inactive) | Ki (Aurora kinase A): > 1.58 µM (inactive) | Ki [7]: > 1.58 µM (inactive) | Ki [8]: > 1.26 µM (inactive) | Ki [9]: > 3.98 µM (inactive) | Ki [10]: > 3.98 µM (inactive) | Ki [11]: > 7.94 µM (inactive) | Ki [12]: > 7.94 µM (inactive) | Ki [13]: > 2.51 µM (inactive) | Ki [14]: > 2.51 µM (inactive) | Ki [15]: > 6.31 µM (inactive)

O=C1C=C(N2CCOCC2)c2ccccc2C1=O
EC50 [16]: 8.37 µM (active) | EC50 [17]: 8.41 µM (active) | EC50 [18]: 13.3 µM (active) | AC50 (INS1): 4.72 µM (active) | AC50 [19]: 8.28 µM (active)
